Article PMC8706879 (Pharmaceuticals, 2021)
Read-outs that look alike come from different tables or passages of the source. Values belong to the compound of their own block, whether it stands above or below them. Where a SMILES comes first, the peptide text is derived from it. Bridges are numbered along the chain shown (N, C = ends). [ ]: non-standard residue; d: D form. The star is where a group is joined. DOTA = O=C(O)CN1CCN(CC(=O)O)CCN(CC(=O)*)CCN(CC(=O)O)CC1; dPhe(4-NHCONH2) = NC(=O)Nc1ccc(C[C@@H](N)C(=O)O)cc1; Dihydroorotyl(S) = O=C1C[C@@H](C(=O)*)NC(=O)N1; Phe(4-Cl) = N[C@@H](Cc1ccc(Cl)cc1)C(=O)O; Phe(4-NH2) = Nc1ccc(C[C@H](N)C(=O)O)cc1

Legend:
human SST2 [1] = target: T1, human SST2 (Homo sapiens, UniProt P30874); experiment: Saturation binding on HEK-SST2 cell membranes
T1 sequence (P30874 whole entry): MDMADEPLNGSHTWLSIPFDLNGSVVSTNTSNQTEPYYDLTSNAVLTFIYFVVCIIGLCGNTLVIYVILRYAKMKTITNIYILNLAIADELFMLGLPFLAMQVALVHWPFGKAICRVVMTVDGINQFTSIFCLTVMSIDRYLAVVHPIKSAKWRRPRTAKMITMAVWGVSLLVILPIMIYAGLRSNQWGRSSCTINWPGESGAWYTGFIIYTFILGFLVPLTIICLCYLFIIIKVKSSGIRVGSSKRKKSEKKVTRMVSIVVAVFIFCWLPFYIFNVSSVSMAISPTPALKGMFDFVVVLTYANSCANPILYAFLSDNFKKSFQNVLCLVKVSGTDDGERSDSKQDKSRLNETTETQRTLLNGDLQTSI
Experimental: (§1) To prepare cell membranes, HEK-SST2 cells were grown to confluence, mechanically disaggregated, washed with PBS (pH 7.4) and re-suspended in 20 mM of homogenisation Tris buffer (pH 7.5) containing 1.3 mM EDTA, 0.25 M sucrose, 0.7 mM bacitracin, 5 µM soybean trypsin inhibitor and 0.7 mM PMSF. The cells were homogenised using Ultra-Turrax, and the homogenised suspension was centrifuged at 500× g for 10 min at 4 °C. The supernatant was collected in centrifuge tubes (Beckman Coulter Inc., Brea, CA, USA). This procedure was then repeated 5 times. The collected supernatant was centrifuged in an ultra-centrifuge (Beckman) at 4 °C for 55 min at 20,000 rpm (approximately 49,000× g). Then, the pellet was re-suspended in 10 mM ice-cold HEPES buffer (pH 7.5), aliquoted, and stored at −80 °C. The protein concentration of those membrane suspensions was determined by the Bradford method, BSA as the standard.
(§2) In all assays, non-specific binding of [^177Lu]Lu-OPS201 was determined using 1000-fold excess of the unlabelled SST2 antagonist OPS202, also known as NODAGA-JR11, (where NODAGA is 1,4,7-triazacyclononane,1-glutaric acid-4,7-acetic acid). […] All reported values refer to specific binding (total minus non-specific binding). The radioactivity of all samples was measured in a gamma-counter (COBRA 5003, Packard Instruments). For all binding experiments with membranes, bound radioligand was separated from the one remaining in solution by rapid vacuum filtration, using an M-48 Brandel Cell Harvester (Alpha Biotech Ltd., Glasgow, UK). The filters were dried before being measured in the gamma-counter.
The incubation was initiated by adding 30 μL of radioligand solution at 10 times the final concentration and 100 μL of cell membrane suspension to yield 10 μg of protein per well.

human SST2 [2] = target: T1, human SST2; experiment: biochemical
Experimental: as §1, §2
The dissociation of those radioligands was initiated by adding a 1000-fold excess of either unlabelled Lu-OPS201, Lu-DOTA-TATE, DOTA-BASS or lanreotide and monitored for up to 3 h. To monitor the stability of the radioligand–receptor complex during this extended time period, the membranes were incubated with radioligand for up to 4 h.

HEK-SST2 cells [3] = experiment: Radioligand binding to and internalisation by intact HEK-SST2 cells; format: cell-based, human; conditions: for cell surface bound fraction of total added radioligand / internalised fraction of total added radioligand: 4 h incubation at 37 °C, 2.5 nM
Experimental: The HEK-293 cell line expressing the T7-epitope tagged human SST2 (HEK-SST2) was provided by Prof. Stefan Schulz (Institute of Pharmacology and Toxicology, Jena University Hospital, Jena, Germany). HEK-SST2 cells were cultured at 37 °C and 5% CO2 in DMEM containing 10% FBS, 100 U/mL penicillin, 100 µg/mL streptomycin, […] L-glutamine, and 500 µg/mL geneticin (G-418).
(§3) In vitro assays on intact cells were performed with HEK-SST2 cells seeded in 6-well plates. The plates were pre-treated with a solution of 10% poly-lysine to promote cell attachment. HEK-SST2 cells (about 1 × 10^6 cells) were incubated in 1% (v/v) FBS containing medium at 37 °C/5% CO2 overnight. The day after, the cells were washed with medium, followed by incubation with the adjusted medium volume for 1 h prior starting the experiment.
as §2
After 0.5, 1, 2 and 4 h (one plate per time point), the medium was removed, and the plated cells were quickly washed twice with ice-cold PBS. The cells were then treated twice for 5 min with ice-cold glycine solution (0.05 M, pH 2.8) to detach the cell surface-bound radioligand (acid releasable). Afterwards, the cells containing the internalised radioligand were detached with 1 M NaOH at 37 °C and collected for measurement. The amount of specific cell surface-bound and internalised radioligand is expressed as a percentage of the total applied activity after subtracting the non-specific values.

HEK-SST2 cells [4] = experiment: Sub-cellular redistribution of cell surface-bound radioligand at 37 °C; format: cell-based, human; parameters: reduction of initial surface-bound fraction: concentration or dose not given beside the values
Experimental: as §3, §2
The cell surface-bound internalisation and dissociation rates of [^177Lu]Lu-OPS201 were studied in HEK-SST2 cells seeded in 6-well plates (10^6 cells/well), which were first placed on ice for 30 min. The experiment was started by adding 2.5 nM [^177Lu]Lu-OPS201 to the medium, and the incubation was carried out at 4 °C for 2 h to prevent internalisation of the radioligand. Afterwards, the cells were washed with ice-cold PBS, and 1 mL/well of fresh pre-warmed (37 °C) medium was added. One plate was immediately treated with ice-cold glycine solution, and then the cells were detached with NaOH to determine the initial surface-bound and internalised fraction. The other plates were incubated at 37 °C for 10, 20, 30, 60, 120 or 240 min (one plate per time point) before the same treatment. At the specified time points, the amount of radioactivity, presented as cell surface-bound, internalised and in medium redistributed radioligand, was expressed in percentage of the cell-associated fraction (surface bound and internalised uptake) at the onset of the redistribution step as control. All reported values have been corrected for non-specific uptake.

HEK-SST2 cells [5] = experiment: Dissociation/release of cell-associated [^177Lu]Lu-OPS201 by intact cells; format: cell-based, human; conditions: after 4 h at 37 °C
Experimental: In vitro assays on intact cells were performed with HEK-SST2 cells seeded in 6-well plates. The plates were pre-treated with a solution of 10% poly-lysine to promote cell attachment. HEK-SST2 cells (about 1 × 10^6 cells) were incubated in 1% (v/v) FBS containing medium at 37 °C/5% CO2 overnight. The day after, the cells were washed with medium, followed by incubation with the adjusted medium volume for 1 h prior starting the experiment. […] The cells were then incubated at 37 °C under three different conditions: […] At preselected time points, the medium was removed for quantification and replaced by fresh pre-warmed (37 °C) medium (either alone or with the same unlabelled competitor). […] At the end, the cells were treated with NaOH and collected for measurement. All values were also normalised as described above. In both aforementioned experiments, the 37 °C washout medium was repeatedly refreshed in an attempt to limit any re-equilibration between free and cell-associated radioligand and to reduce the accumulation (and thus the rebinding) of radioligand molecules when they were already dispersed in the bulk of the naïve medium. All data were fitted according to the one-phase exponential decay equation (GraphPad Software Inc., Prism 7).

HEK-SST2 cells [6] = experiment: Externalisation of [^177Lu]Lu-DOTA-TATE by intact cells; format: cell-based, human
Experimental: In vitro assays on intact cells were performed with HEK-SST2 cells seeded in 6-well plates. The plates were pre-treated with a solution of 10% poly-lysine to promote cell attachment. HEK-SST2 cells (about 1 × 10^6 cells) were incubated in 1% (v/v) FBS containing medium at 37 °C/5% CO2 overnight. The day after, the cells were washed with medium, followed by incubation with the adjusted medium volume for 1 h prior starting the experiment. […] The cells were afterwards incubated at 37 °C under the same three different conditions as above. […] At the end, the cells were treated with NaOH and collected for measurement. All reported values were also normalised as described above. In both aforementioned experiments, the 37 °C washout medium was repeatedly refreshed in an attempt to limit any re-equilibration between free and cell-associated radioligand and to reduce the accumulation (and thus the rebinding) of radioligand molecules when they were already dispersed in the bulk of the naïve medium. All data were fitted according to the one-phase exponential decay equation (GraphPad Software Inc., Prism 7).

[7] = after 2 h pre-incubation at 4 °C
[8] = after 4 h of incubation at 37 °C

Bmax (human SST2 [1]; HEK-SST2 cell membranes 10 µg/well, 37 °C, single-site model): 0.37 ± 0.02 nM
Kd (human SST2 [1]; HEK-SST2 cell membranes, 37 °C, single-site model): 150 ± 3 pM
number of binding sites recognised relative to [^177Lu]Lu-DOTA-TATE (human SST2 [1]; saturation binding, HEK-SST2 cell membranes): about four times more sites
dissociation t1/2 (human SST2 [2]): 41 min
koff (human SST2 [2]; HEK-SST2 membranes, competitor DOTA-BASS): 0.0003 s⁻¹
koff (human SST2 [2]; HEK-SST2 membranes, competitor Lu-OPS201): 0.000283 s⁻¹
dissociation t1/2 (human SST2 [2]; competitor: excess DOTA-BASS): 38 min
Compound: C[C@@H](O)[C@@H]1NC(=O)[C@H](CCCCN)NC(=O)[C@@H](Cc2ccc(NC(N)=O)cc2)NC(=O)[C@H](Cc2ccc(NC(=O)[C@@H]3CC(=O)NC(=O)N3)cc2)NC(=O)[C@H](NC(=O)[C@H](Cc2ccc(Cl)cc2)NC(=O)CN2CCN(CC(=O)O)CCN(CC(=O)O)CCN(CC(=O)O)CC2)CSSC[C@@H](C(=O)N[C@H](Cc2ccc(O)cc2)C(N)=O)NC1=O [[^177Lu]Lu-OPS201, ^177Lu-satoreotide tetraxetan, metal not drawn] ({DOTA}-[Phe(4-Cl)][dC][Phe(4-NH2)](Dihydroorotyl(S))[dPhe(4-NHCONH2)]KTC[dY]-NH2; disulfide 2-7)
cell surface bound fraction of total added radioligand (HEK-SST2 cells [3]): 46 ± 2%
internalised fraction of total added radioligand (HEK-SST2 cells [3]): 31 ± 1%
internalised fraction of added radioligand (HEK-SST2 cells [4]; [7]): 7%
surface-bound fraction of added radioligand (HEK-SST2 cells [4]; [7]): 54%
fraction released in the medium (HEK-SST2 cells [4]; after 4 h at 37 °C, undisturbed medium): < 5%
internalised fraction (of cell-associated activity) (HEK-SST2 cells [4]; [8]): 24%
reduction of initial surface-bound fraction (HEK-SST2 cells [4]; [8]): 17%
surface-bound fraction (of cell-associated activity) (HEK-SST2 cells [4]; [8]): 71%
internalised fraction (of cell-associated activity) (HEK-SST2 cells [4]; t = 0 of 37 °C incubation): 12%
surface-bound fraction (of cell-associated activity) (HEK-SST2 cells [4]; t = 0 of 37 °C incubation): 88%
radioligand released (HEK-SST2 cells [5]; repeatedly refreshed naïve medium): 40%
radioligand released (HEK-SST2 cells [5]; washout medium with excess of unlabelled Lu-OPS201 or Lu-DOTA-TATE): 70%

Compound: C[C@@H](O)[C@H](NC(=O)[C@@H]1CSSC[C@H](NC(=O)[C@@H](Cc2ccccc2)NC(=O)CN2CCN(CC(=O)O)CCN(CC(=O)O)CCN(CC(=O)O)CC2)C(=O)N[C@@H](Cc2ccc(O)cc2)C(=O)N[C@H](Cc2c[nH]c3ccccc23)C(=O)N[C@@H](CCCCN)C(=O)N[C@@H]([C@@H](C)O)C(=O)N1)C(=O)O [[^177Lu]Lu-DOTA-TATE, ^177Lu-oxodotreotide, metal not drawn]
internalised fraction (HEK-SST2 cells [3]; 30 min of incubation at 37 °C): more than 50%
cell surface bound fraction of total added radioligand (HEK-SST2 cells [3]): 2 ± 1%
internalised fraction of total added radioligand (HEK-SST2 cells [3]): 77 ± 3%
cell surface binding at 4 °C (HEK-SST2 cells [4]; 4 °C): very low cell surface binding
decrease of internalised radioligand during washout (HEK-SST2 cells [6]; after 4 h in naïve medium, 37 °C): only partial
decrease of internalised radioligand during washout (HEK-SST2 cells [6]; after 4 h in the presence of an excess of Lu-DOTA-TATE and Lu-OPS201, 37 °C): nearly complete

Compound: H-D2Nal-c(Cys-Tyr-DTrp-Lys-Val-Cys)-Thr-NH2 [lanreotide, reference compound]
displacement of specifically bound [^177Lu]Lu-OPS201 by the unlabelled agonist (human SST2 [2]; high concentration (1000-fold excess) of competitor, HEK-SST2 membranes): no more than 30%
